Data on 16 molecules can be found in patent US20240360178A1, “MACROCYCLIC IMMUNOMODULATORS” (Bristol-Myers Squibb Company, priority 2021, published 2024).

SMILES strings stand for the structures. pIC50: −log10 of the molar value. Starred links: 1 amine or outer side, 2 acyl side, 3 side chain; linkers in the order of their positions; H or OH if unused. Positions of bridges follow the written chain, without caps; N, C: chain ends. Non-standard residues stand in square brackets, D forms with d. Residues, ends and D or L forms follow the SMILES beside them. Phe(3,4,5-F3) = N[C@@H](Cc1cc(F)c(F)c(F)c1)C(=O)O; Phe(4-CH2NH2) = NCc1ccc(C[C@H](N)C(=O)O)cc1; Bip = N[C@@H](Cc1ccc(-c2ccccc2)cc1)C(=O)O; dPro(4S-NH2) = N[C@@H]1CN[C@@H](C(=O)O)C1; X1 = O=C([C@H](Cc1ccn[nH]1)N[*:1])[*:2]; Ala(cPent) = N[C@@H](CC1CCCC1)C(=O)O; NMeF = CN[C@@H](Cc1ccccc1)C(=O)O; Aad = N[C@@H](CCCC(=O)O)C(=O)O; Cha = N[C@@H](CC1CCCCC1)C(=O)O; NMeA = CN[C@@H](C)C(=O)O; Nle = CCCC[C@H](N)C(=O)O; Dab = NCC[C@H](N)C(=O)O; Sar = CNCC(=O)O

The target in this experiment is T1, human PD-1 (Jurkat-PD-1 cells) / PE-labeled human PD-L1-Ig (Homo sapiens, UniProt Q15116).
T1 construct: expressed in transfected cells; host or cells: Jurkat cell line over-expressing human PD-1
T1 sequence (Q15116 25-288): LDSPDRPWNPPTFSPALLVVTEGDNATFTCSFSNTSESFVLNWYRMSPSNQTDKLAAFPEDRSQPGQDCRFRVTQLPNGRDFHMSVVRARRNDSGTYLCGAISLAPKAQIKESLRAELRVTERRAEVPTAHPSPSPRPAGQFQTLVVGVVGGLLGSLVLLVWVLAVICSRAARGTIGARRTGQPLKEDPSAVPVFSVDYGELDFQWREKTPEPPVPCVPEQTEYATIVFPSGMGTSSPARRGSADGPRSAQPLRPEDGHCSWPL
The experiment can be described thus: Jurkat-PD-1 Cell Binding High-Content Screening Assay (CBA); Jurkat hPD1-PDL1 assay. The following applies: Jurkat cell line over-expressing human PD-1; PE-labeled PD-L1-Ig 20 nM final; compound incubated 2 hours at 37° C.; read-out: Jurkat HPD1-PDL1 IC50. Summed up: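 Jurkat cells over-expressing human PD-1, seeded in DMEM with 10% fetal calf serum, were preincubated with compound for 2 hours at 37° C. PE-labeled human PD-L1-Ig was then added at 20 nM final, and cell-bound fluorescence was read by high-content imaging.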
As to `CC(C)C[C@@H]1NC(=O)[C@H](Cc2c[nH]c3ccccc23)NC(=O)[C@H](CC(=O)O)NC(=O)[C@H](Cc2ccc(O)cc2)NC(=O)[C@H](Cc2ccccc2)NC(=O)CSC[C@@H](C(=O)N[C@@H](C)C(N)=O)NC(=O)[C@H]([C@@H](C)O)NC(=O)[C@H](CCCCN)NC(=O)[C@H](CC(C)C)NC(=O)[C@H](CC(N)=O)NC(=O)[C@H]2CCCN2C(=O)[C@H](C)N(C)C(=O)[C@H](C(C)C)NC(=O)[C@H](Cc2ccc(-c3ccccc3)cc2)NC1=O` [Example 1089] ({CH2CO}-FYDWL[Bip]V[NMeA][dP]NLKTCA-NH2; thioether N-14), the negative-log IC50 (pIC50) (as a rule, the IC50 on a negative log10 scale, so that one unit is a factor of ten) was 6.60.
Turning to `CC(C)C[C@@H]1NC(=O)[C@H](Cc2c[nH]c3ccccc23)NC(=O)[C@H](CC(=O)O)NC(=O)[C@H](Cc2ccc(O)cc2)NC(=O)[C@H](Cc2ccccc2)NC(=O)CSC[C@@H](C(=O)N[C@@H](C)C(N)=O)NC(=O)[C@H](CO)NC(=O)[C@H](C(C)C)NC(=O)[C@H](CC(C)C)NC(=O)[C@H](CC(N)=O)NC(=O)[C@H]2C[C@H](N)CN2C(=O)[C@H](C)N(C)C(=O)[C@H](C(C)C)NC(=O)[C@H](Cc2ccc(-c3ccccc3)cc2)NC1=O` [Example 1091] ({CH2CO}-FYDWL[Bip]V[NMeA][dPro(4S-NH2)]NLVSCA-NH2; thioether N-14), the pIC50 was 6.59.
Take `CC(C)C[C@@H]1NC(=O)[C@H](Cc2c[nH]c3ccccc23)NC(=O)[C@H](CC(=O)O)NC(=O)[C@H](Cc2ccc(O)cc2)NC(=O)[C@H](Cc2ccccc2)NC(=O)CSC[C@@H](C(=O)N[C@@H](C)C(N)=O)NC(=O)[C@H](CO)NC(=O)[C@H](C(C)C)NC(=O)[C@H](CC(C)C)NC(=O)[C@H](CC(N)=O)NC(=O)CN(C)C(=O)[C@H](C)N(C)C(=O)[C@H](CCCC(=O)O)NC(=O)[C@H](Cc2ccc(-c3ccccc3)cc2)NC1=O` [Example 1092] ({CH2CO}-FYDWL[Bip][Aad][NMeA][Sar]NLVSCA-NH2; thioether N-14): the pIC50 was 6.59.
Turning to `CC(C)C[C@@H]1NC(=O)[C@H](Cc2c[nH]c3ccccc23)NC(=O)[C@H](CC(=O)O)NC(=O)[C@H](Cc2ccc(O)cc2)NC(=O)[C@H](Cc2ccccc2)NC(=O)CSC[C@@H](C(=O)N[C@@H](C)C(N)=O)NC(=O)[C@H](CO)NC(=O)[C@H](C(C)C)NC(=O)[C@H](CC2CCCCC2)NC(=O)[C@H](CC(N)=O)NC(=O)CN(C)C(=O)[C@H](C)N(C)C(=O)[C@H](C(C)C)NC(=O)[C@H](Cc2ccc(-c3ccccc3)cc2)NC1=O` [Example 1093] ({CH2CO}-FYDWL[Bip]V[NMeA][Sar]N[Cha]VSCA-NH2; thioether N-14), the pIC50 was 6.57.
With `CC(C)C[C@@H]1NC(=O)[C@H](Cc2c[nH]c3ccccc23)NC(=O)[C@H](CC(=O)O)NC(=O)[C@H](Cc2ccc(O)cc2)NC(=O)[C@H](Cc2ccn[nH]2)NC(=O)CSC[C@@H](C(=O)N[C@@H](C)C(N)=O)NC(=O)[C@H](CO)NC(=O)[C@H](C(C)C)NC(=O)[C@H](CC(C)C)NC(=O)[C@H](CC(N)=O)NC(=O)CN(C)C(=O)[C@H](C)N(C)C(=O)[C@H](C(C)C)NC(=O)[C@H](Cc2ccc(-c3ccccc3)cc2)NC1=O` [Example 1094] ({CH2CO}-[X1]YDWL[Bip]V[NMeA][Sar]NLVSCA-NH2; thioether N-14) the figure was 6.55; with `CC(C)C[C@@H]1NC(=O)[C@H](Cc2c[nH]c3ccccc23)NC(=O)[C@H](CC(=O)O)NC(=O)[C@H](Cc2ccc(O)cc2)NC(=O)[C@H](Cc2ccccc2)NC(=O)CSC[C@@H](C(=O)N[C@@H](C)C(N)=O)NC(=O)[C@H](CO)NC(=O)[C@H](C(C)C)NC(=O)[C@H](CC(C)C)NC(=O)[C@H](CC(N)=O)NC(=O)[C@H](Cc2ccccc2)N(C)C(=O)[C@H](C)N(C)C(=O)[C@H](CCCNC(=N)N)NC(=O)[C@H](Cc2ccc(-c3ccccc3)cc2)NC1=O` [Example 1095] ({CH2CO}-FYDWL[Bip]R[NMeA][NMeF]NLVSCA-NH2; thioether N-14), 6.55.
Then `CC(C)C[C@@H]1NC(=O)[C@H](Cc2c[nH]c3ccccc23)NC(=O)[C@H](CC(=O)O)NC(=O)[C@H](Cc2ccc(O)cc2)NC(=O)[C@H](Cc2ccccc2)NC(=O)CSC[C@@H](C(=O)N[C@@H](C)C(N)=O)NC(=O)[C@H](CO)NC(=O)[C@H](C(C)C)NC(=O)[C@H](CC(C)C)NC(=O)[C@H](CCCNC(=N)N)NC(=O)[C@H]2CCCN2C(=O)[C@H](C)N(C)C(=O)[C@H](CCCNC(=N)N)NC(=O)[C@H](Cc2ccc(-c3ccccc3)cc2)NC1=O` [Example 1096] ({CH2CO}-FYDWL[Bip]R[NMeA][dP]RLVSCA-NH2; thioether N-14), with 6.55; and `CCCC[C@@H]1NC(=O)[C@H](CC(N)=O)NC(=O)[C@H]2CCCN2C(=O)[C@H](C)N(C)C(=O)[C@H](C(C)C)NC(=O)[C@H](Cc2ccc(-c3ccccc3)cc2)NC(=O)[C@H](CC(C)C)NC(=O)[C@H](Cc2c[nH]c3ccccc23)NC(=O)[C@H](CC(=O)O)NC(=O)[C@H](Cc2ccc(O)cc2)NC(=O)[C@H](Cc2ccccc2)NC(=O)CSC[C@@H](C(=O)N[C@@H](C)C(N)=O)NC(=O)[C@H]([C@@H](C)O)NC(=O)[C@H](C(C)C)NC1=O` [Example 1097] ({CH2CO}-FYDWL[Bip]V[NMeA][dP]N[Nle]VTCA-NH2; thioether N-14), with 6.55; and `CC(C)C[C@@H]1NC(=O)[C@H](Cc2c[nH]c3ccccc23)NC(=O)[C@H](CC(=O)O)NC(=O)[C@H](Cc2ccc(O)cc2)NC(=O)[C@H](Cc2cc(F)c(F)c(F)c2)NC(=O)CSC[C@@H](C(=O)NCC(N)=O)NC(=O)[C@H](CO)NC(=O)[C@H](C(C)C)NC(=O)[C@H](CC(C)C)NC(=O)[C@H](CC(N)=O)NC(=O)CN(C)C(=O)[C@H](C)N(C)C(=O)[C@H](C(C)C)NC(=O)[C@H](Cc2ccc(-c3ccccc3)cc2)NC1=O` [Example 1098] ({CH2CO}-[Phe(3,4,5-F3)]YDWL[Bip]V[NMeA][Sar]NLVSCG-NH2; thioether N-14), with 6.51.
For the molecule `CC(C)C[C@@H]1NC(=O)[C@H](Cc2c[nH]c3ccccc23)NC(=O)[C@H](CC(=O)O)NC(=O)[C@H](Cc2ccc(O)cc2)NC(=O)[C@H](Cc2ccccc2)NC(=O)CSC[C@@H](C(=O)N[C@@H](C)C(N)=O)NC(=O)[C@H](CO)NC(=O)[C@H](C(C)C)NC(=O)[C@H](CC(C)C)NC(=O)[C@H](CCCCN)NC(=O)CN(C)C(=O)[C@H](C)N(C)C(=O)[C@H](C(C)C)NC(=O)[C@H](Cc2ccc(-c3ccccc3)cc2)NC1=O` [Example 1099] ({CH2CO}-FYDWL[Bip]V[NMeA][Sar]KLVSCA-NH2; thioether N-14), the negative-log IC50 (pIC50) is 6.51.
Consider `CCCC[C@@H]1NC(=O)CSC[C@@H](C(=O)NCC(N)=O)NC(=O)[C@H](CO)NC(=O)[C@H](C(C)C)NC(=O)[C@H](CC(C)C)NC(=O)[C@H](CC(N)=O)NC(=O)CN(C)C(=O)[C@H](C)N(C)C(=O)[C@H](C(C)C)NC(=O)[C@H](Cc2ccc(-c3ccccc3)cc2)NC(=O)[C@H](CC(C)C)NC(=O)[C@H](Cc2c[nH]c3ccccc23)NC(=O)[C@H](CC(=O)O)NC(=O)[C@H](Cc2ccc(O)cc2)NC1=O` [Example 1100] ({CH2CO}-[Nle]YDWL[Bip]V[NMeA][Sar]NLVSCG-NH2; thioether N-14), for which the negative logarithm of the IC50 (pIC50) is 6.51.
For the molecule `CC(C)C[C@@H]1NC(=O)[C@H](Cc2c[nH]c3ccccc23)NC(=O)[C@H](CC(=O)O)NC(=O)[C@H](Cc2ccc(CN)cc2)NC(=O)[C@H](Cc2ccccc2)NC(=O)CSC[C@@H](C(=O)N[C@@H](C)C(N)=O)NC(=O)[C@H](CO)NC(=O)[C@H](C(C)C)NC(=O)[C@H](CC(C)C)NC(=O)[C@H](CC(N)=O)NC(=O)CN(C)C(=O)[C@H](C)N(C)C(=O)[C@H](C(C)C)NC(=O)[C@H](Cc2ccc(-c3ccccc3)cc2)NC1=O` [Example 1101] ({CH2CO}-F[Phe(4-CH2NH2)]DWL[Bip]V[NMeA][Sar]NLVSCA-NH2; thioether N-14), the pIC50 is 6.52.
Turning to `CC(C)C[C@@H]1NC(=O)[C@H](Cc2c[nH]c3ccccc23)NC(=O)[C@H](CC(=O)O)NC(=O)[C@H](Cc2ccc(O)cc2)NC(=O)[C@H](Cc2ccccc2)NC(=O)CSC[C@@H](C(=O)N[C@@H](C)C(N)=O)NC(=O)[C@H](CO)NC(=O)[C@H](C(C)C)NC(=O)[C@H](CC2CCCC2)NC(=O)[C@H](CC(N)=O)NC(=O)CN(C)C(=O)[C@H](C)N(C)C(=O)[C@H](C(C)C)NC(=O)[C@H](Cc2ccc(-c3ccccc3)cc2)NC1=O` [Example 1102] ({CH2CO}-FYDWL[Bip]V[NMeA][Sar]N[Ala(cPent)]VSCA-NH2; thioether N-14), the pIC50 was 6.51.
With `CC(C)C[C@@H]1NC(=O)[C@H](Cc2c[nH]c3ccccc23)NC(=O)[C@H](CC(=O)O)NC(=O)[C@H](Cc2ccc(O)cc2)NC(=O)[C@H](Cc2ccccc2)NC(=O)CSC[C@@H](C(=O)N[C@@H](CCN)C(N)=O)NC(=O)[C@H](CO)NC(=O)[C@H](C(C)C)NC(=O)[C@H](CC(C)C)NC(=O)[C@H](CC(N)=O)NC(=O)CN(C)C(=O)[C@H](C)N(C)C(=O)[C@H](C(C)C)NC(=O)[C@H](Cc2ccc(-c3ccccc3)cc2)NC1=O` [Example 1103] ({CH2CO}-FYDWL[Bip]V[NMeA][Sar]NLVSC[Dab]-NH2; thioether N-14) the figure was 6.51; with `CC(C)C[C@@H]1NC(=O)[C@H](CC(N)=O)NC(=O)CN(C)C(=O)[C@H](C)N(C)C(=O)[C@H](C(C)C)NC(=O)[C@H](Cc2ccc(-c3ccccc3)cc2)NC(=O)[C@H](CC(C)C)NC(=O)[C@H](Cc2c[nH]c3ccccc23)NC(=O)[C@H](CC(=O)O)NC(=O)[C@H](Cc2ccc(O)cc2)NC(=O)[C@H](Cc2ccccc2)NC(=O)CSC[C@@H](C(=O)NCC(N)=O)NC(=O)[C@H](CO)NC(=O)[C@H](CCCCN)NC1=O` [Example 1104] ({CH2CO}-FYDWL[Bip]V[NMeA][Sar]NLKSCG-NH2; thioether N-14), 6.49; with `CC(C)C[C@@H]1NC(=O)[C@H](CCCNC(=N)N)NC(=O)[C@H](Cc2ccccc2)N(C)C(=O)[C@H](C)N(C)C(=O)[C@H](CCCNC(=N)N)NC(=O)[C@H](Cc2ccc(-c3ccccc3)cc2)NC(=O)[C@H](C(C)C)NC(=O)[C@H](Cc2c[nH]c3ccccc23)NC(=O)[C@H](CC(=O)O)NC(=O)[C@H](Cc2ccc(O)cc2)NC(=O)[C@H](Cc2ccccc2)NC(=O)CSC[C@@H](C(=O)N[C@@H](CCC(=O)O)C(N)=O)NC(=O)[C@H](CO)NC(=O)[C@H](C(C)C)NC1=O` [Example 1105] ({CH2CO}-FYDWV[Bip]R[NMeA][NMeF]RLVSCE-NH2; thioether N-14), 6.48.
